Converted amounts (≈) assume the structure as drawn.
How the values were obtained:
[1] = test system: Streptococcus faecalis (BCM-010); test: MIC by microdilution in microtiter plate, BCM-010; assay type: cell-based; conditions: incubation 24 h at 35° C.; for MIC: Enterococcus faecalis
Procedure: (§1) In order to assess the antimicrobial activity of the compounds of the present invention a method of microdilution in microtiter plate was used. The compounds were diluted in a nutritious medium and, subsequently, distributed by two-fold serial dilutions in 96 well plates. Then, plates were inoculated with a bacterial suspension. After incubation for 24 h at 35° C. the minimum inhibitory concentration (MIC) of the drug in […] was determined as the lowest concentration of compound which inhibits the growth of the bacterium. Results included in Table 1 illustrate the antimicrobial activity of some of the compounds of the present invention in comparison with thus obtained with two compounds (linezolid and eperezolid) of a known antimicrobial activity. The antimicrobial activity of the compound versus Streptococcus faecalis (BCM-010, strain designation as for SALVAT collection) Staphylococcus aureus (BCM-012, strain designation as for SALVAT collection) and Moraxella catarrhalis (BCM-015, strain designation as for SALVAT collection), respectively, is shown in the different columns.

[2] = test system: Staphylococcus aureus (BCM-012); test: MIC by microdilution in microtiter plate, BCM-012; assay type: cell-based; conditions: incubation 24 h at 35° C.
Procedure: as §1

[3] = test system: Moraxella catarrhalis (BCM-015); test: MIC by microdilution in microtiter plate, BCM-015; assay type: cell-based; conditions: incubation 24 h at 35° C.
Procedure: as §1

[4] = test system: HT-29; test: cells; assay type: cell-based, human
Procedure: (§2) Antitumoral activity of the compounds of the present invention was evaluated by determining in vitro cell growth inhibition of 2 human colon adenocarcinome cell lines. The SBR (Sulphorhodamine B) protein dye assay described by the NCI (National Cancer Institute) was used. Results of Table 2 illustrate the antiproliferative activity of some of the compounds of the present invention versus the one obtained with exisulind (sulindac sulfone).

[5] = test system: HCT-116; test: cells; assay type: cell-based, human
Procedure: as §2

For `O/N=C\c1ccn(-c2ccc(-c3cc(CNc4ccon4)on3)cc2F)c1` [Example 24], the MIC [1] was 0.5 µg/mL (≈ 1.36 µM), the MIC [2] was 0.5 µg/mL (≈ 1.36 µM) and the MIC [3] was 16 µg/mL (≈ 43.6 µM).
`O=C(c1ccno1)N1CCN(c2ccc(-c3cc(CNc4ccon4)on3)cc2F)CC1` [Example 3] was tested, and the MIC [1] was 4 µg/mL (≈ 9.12 µM) and the MIC [2] was 2 µg/mL (≈ 4.56 µM).
For `O=C(Cn1cccc1)N1CCN(c2ccc(-c3cc(CNc4ccon4)on3)cc2F)CC1` [Example 10, 3-[3-fluoro-4-(4-(1-pyrrolyl)acetyl)piperazin-1-ylphenyl]-5-(isoxazol-3-ylaminomethyl)isoxazole], the MIC [1] was 4 µg/mL (≈ 8.88 µM), the MIC [2] was 2 µg/mL (≈ 4.44 µM) and the MIC [3] was greater than 16 µg/mL.
`O=C(COCc1ccccn1)N1CCN(c2ccc(-c3cc(CNc4ccon4)on3)cc2F)CC1` [Example 16, 3-[3-fluoro-4-(2-pyridylmethoxyacetyl)piperazin-1-ylphenyl]-5-(isoxazol-3-ylaminomethyl)isoxazole] was tested, and the MIC [1] was 4 µg/mL (≈ 8.12 µM) and the MIC [2] was 2 µg/mL (≈ 4.06 µM).
Work on `O=C(COc1ccc([N+](=O)[O-])cc1)N1CCN(c2ccc(-c3cc(CNc4ccon4)on3)cc2F)CC1` [Example 14, 3-[3-fluoro-4-(4-nitrophenyloxyaetyl)piperazin-1-ylphenyl]-5-(isoxazol-3-ylaminomethyl)isoxazole] yielded an MIC [1] of 2 µg/mL (≈ 3.83 µM) and an MIC [2] of 1 µg/mL (≈ 1.91 µM).
Work on `O=Cc1ccc(OCC(=O)N2CCN(c3c(F)cc(-c4cc(CNc5ccon5)on4)cc3F)CC2)cc1` [Example 26, 4-[2-(4-{2,6-difluoro-4-[5-(isoxazol-3-ylaminomethyl)isoxazol-3-yl]phenyl}piperazin-1-yl)-2-oxoethoxy]benzaldehyde] yielded an MIC [1] of 1 µg/mL (≈ 1.91 µM), an MIC [2] of 0.5 µg/mL (≈ 0.955 µM) and an MIC [3] of 4 µg/mL (≈ 7.64 µM).
In the case of `O=Cc1cn(-c2ccc(-c3cc(CNc4ccon4)on3)cc2F)cn1` [Example 27, 1-{2-fluoro-4-[5-(isoxazol-3-ylaminomethyl)isoxazol-3-yl]phenyl}-1H-imidazol-4-carboxaldehyde], the MIC [1] is reported as 2 µg/mL (≈ 5.66 µM), the MIC [2] is reported as 0.5 µg/mL (≈ 1.42 µM) and the MIC [3] is reported as 4 µg/mL (≈ 11.3 µM).
With `O=C(Cn1cccn1)N1CCN(c2ccc(-c3cc(CNc4ccon4)on3)cc2F)CC1` [Example 6] the MIC [1] was 4 µg/mL (≈ 8.86 µM), the MIC [2] was 2 µg/mL (≈ 4.43 µM) and the MIC [3] was greater than 16 µg/mL.
With `O=C(COc1cccc([N+](=O)[O-])c1)N1CCN(c2ccc(-c3cc(CNc4ccon4)on3)cc2F)CC1` [Example 13, 3-[3-fluoro-4-(3-nitrophenyloxyacetyl)piperazin-1-ylphenyl]-5-(isoxazol-3-ylaminomethyl)isoxazole] the MIC [1] was 2 µg/mL (≈ 3.83 µM) and the MIC [2] was 1 µg/mL (≈ 1.91 µM).
Molecule `OCc1ccn(-c2ccc(-c3cc(CNc4ccon4)on3)cc2F)c1` [Example 23, (1-{2-fluoro-4-[5-(isoxazol-3-ylaminomethyl)-isoxazol-3-yl]phenyl}-1H-pyrrol-3-yl)methanol] has an MIC [1] of 1 µg/mL (≈ 2.82 µM), an MIC [2] of 0.5 µg/mL (≈ 1.41 µM) and an MIC [3] of 4 µg/mL (≈ 11.3 µM).
`O=C(COc1ccccc1)N1CCN(c2ccc(-c3cc(CNc4ccon4)on3)cc2F)CC1` [Example 7, 1-(4-{2-fluoro-4-[5-(isoxazol-3-ylaminomethyl)-isoxazol-3-yl]-phenyl}piperazin-1-yl)-2-phenoxyethanone] was tested, and the MIC [1] was 4 µg/mL (≈ 8.38 µM) and the MIC [2] was 2 µg/mL (≈ 4.19 µM).
`O=C(COc1ccc2ncccc2c1)N1CCN(c2ccc(-c3cc(CNc4ccon4)on3)cc2F)CC1` [Example 22, 1-(4-{2-fluoro-4-[5-(isoxazol-3-ylaminomethyl)-isoxazol-3-yl]-phenyl}piperazin-1-yl)-2(quinolin-6-yloxy)ethanone] was tested, and the MIC [1] was 1 µg/mL (≈ 1.89 µM), the MIC [2] was 0.5 µg/mL (≈ 0.946 µM) and the MIC [3] was 4 µg/mL (≈ 7.57 µM).
Work on `CC(=O)NC[C@H]1CN(c2ccc(N3CCOCC3)c(F)c2)C(=O)O1` [Linezolid, linezolid, reference compound] yielded an MIC [1] of 4 µg/mL (≈ 11.9 µM), an MIC [2] of 2 µg/mL (≈ 5.93 µM) and an MIC [3] of 4 µg/mL (≈ 11.9 µM).
For “sulindac sulfone [Exisulind, reference compound]”, the “Cell viability percentage at 100 μM HT-29” value [4] was 38.1% and the “Cell viability percentage at 100 μM HCT-116” value [5] was 44.1%.
Molecule `C#CCOCC(=O)N1CCN(c2ccc(-c3cc(CNc4ccon4)on3)cc2F)CC1` [Example 18, 3-[3-fluoro-4-(3-propyn-1-yloxyacetyl)piperazin-1-ylphenyl]-5-(isoxazol-3-ylaminomethyl)isoxazole] has an MIC [1] of 4 µg/mL (≈ 9.1 µM) and an MIC [2] of 2 µg/mL (≈ 4.55 µM).
`O=Cc1ccc(OCC(=O)N2CCN(c3ccc(-c4cc(CNc5ccon5)on4)cc3F)CC2)cc1` [Example 19, 3-[3-fluoro-4-(4-formylphenyloxyacetyl)piperazin-1-ylphenyl]-5-(isoxazol-3-ylaminomethyl)isoxazole] was tested, and the MIC [1] was 0.5 µg/mL (≈ 0.989 µM) and the MIC [2] was 1 µg/mL (≈ 1.98 µM).
`O=C(COCc1ccco1)N1CCN(c2ccc(-c3cc(CNc4ccon4)on3)cc2F)CC1` [Example 15, 3-[3-fluoro-4-(2-furylmethoxyacetyl)piperazin-1-ylphenyl]-5-(isoxazol-3-ylaminomethyl)isoxazole] gave an MIC [1] of 4 µg/mL (≈ 8.31 µM) and an MIC [2] of 2 µg/mL (≈ 4.15 µM).
With “1-(2-fluoro-4-{5-[(3-methylisotiazol-5-ylamino)-methyl]isoxazol-3-yl}phenyl)-1H-imidazol-4-carboxaldehyde [Example 33]” the “BCM-010 MIC” value [1] was 2 µg/mL, the “BCM-012 MIC” value [2] was 0.5 µg/mL and the “BCM-015 MIC” value [3] was 4 µg/mL.
`O=C(COc1ccccn1)N1CCN(c2ccc(-c3cc(CNc4ccon4)on3)cc2F)CC1` [Example 12, 3-[3-fluoro-4-(2-pyridyloxyacetyl)piperazin-1-ylphenyl]-5-(isoxazol-3-ylaminomethyl)isoxazole] was tested, and the MIC [1] was 2 µg/mL (≈ 4.18 µM) and the MIC [2] was 2 µg/mL (≈ 4.18 µM).
In the case of `Cc1cc(NCc2cc(-c3ccc(-n4ccnc4)c(F)c3)no2)sn1` [Example 32, [3-(3-fluoro-4-imidazol-1-ylphenyl)isoxazol-5-ylmethyl]-(3-methylisotiazol-5-yl)amine], the MIC [1] is reported as 1 µg/mL (≈ 2.81 µM) and the MIC [2] is reported as 1 µg/mL (≈ 2.81 µM).
In the case of `Fc1cc(-c2cc(CNc3ccon3)on2)ccc1-n1ccnc1` [Example 2, 3-(3-fluoro-4-imidazol-1-ylphenyl)-5-(isoxazol-3-ylaminomethyl)isoxazole], the MIC [1] is reported as 4 µg/mL (≈ 12.3 µM) and the MIC [2] is reported as 2 µg/mL (≈ 6.15 µM).
`O=Cc1ccn(-c2ccc(-c3cc(CNc4ccon4)on3)cc2F)c1` [Example 5] was tested, and the MIC [1] was 1 µg/mL (≈ 2.84 µM), the MIC [2] was 1 µg/mL (≈ 2.84 µM) and the MIC [3] was 8 µg/mL (≈ 22.7 µM).
With `Cc1cn(-c2ccc(-c3cc(CNc4cc(C)ns4)on3)cc2F)cn1` [Example 34, {3-[3-fluoro-4-(4-methylimidazolyl)phenyl]isoxazol-5-ylmethyl}-(3-methyl-isothiazol-5-yl)amine] the MIC [1] was 1 µg/mL (≈ 2.71 µM), the MIC [2] was 1 µg/mL (≈ 2.71 µM) and the MIC [3] was 4 µg/mL (≈ 10.8 µM).
`O=C(CO)N1CCN(c2ccc(-c3cc(CNc4ccon4)on3)cc2F)CC1` [Example 1, 3-[3-fluoro-4-(hydroxyacetyl)piperazin-1-ylyhenyl]-5-(isoxazol-3-ylaminomethyl)isoxazole] gave an MIC [1] of 4 µg/mL (≈ 9.97 µM), an MIC [2] of 2 µg/mL (≈ 4.98 µM) and an MIC [3] of 8 µg/mL (≈ 19.9 µM).
`O=C(COc1ccc(/C=N\O)cc1)N1CCN(c2c(F)cc(-c3cc(CNc4ccon4)on3)cc2F)CC1` [Example 31, 4-[2-(4-{2,6-difluoro-4-[5-(isoxazol-3]aminomethyl)isoxazol-3-yl-penyl}-piperazin-1-yl)2-oxoethoxy]-benzaldoxime] showed an MIC [1] of 1 µg/mL (≈ 1.86 µM) and an MIC [2] of 0.5 µg/mL (≈ 0.928 µM).
In the case of `O=C(COc1cccnc1)N1CCN(c2ccc(-c3cc(CNc4ccon4)on3)cc2F)CC1` [Example 11, 3-[3-fluoro-4-(3-pyridyloxyacetyl)piperazin-1-ylphenyl]-5-(isoxazol-3-ylaminomethyl)isoxazole], the MIC [1] is reported as 4 µg/mL (≈ 8.36 µM) and the MIC [2] is reported as 2 µg/mL (≈ 4.18 µM).
`Cc1ccccc1NCc1ccn(-c2ccc(-c3cc(CNc4ccon4)on3)cc2F)c1` [Example 30, (3-{3-fluoro-4-[3-(o-tolylaminomethyl)pyrrol-1-yl]phenyl}isoxazol-5-ylmethyl)isoxazol-3-ylamine] showed an MIC [1] of 1 µg/mL (≈ 2.25 µM), an MIC [2] of 0.5 µg/mL (≈ 1.13 µM) and an MIC [3] of 16 µg/mL (≈ 36.1 µM).
With `N#Cc1ccc(OCC(=O)N2CCN(c3ccc(-c4cc(CNc5ccon5)on4)cc3F)CC2)cc1` [Example 17, 3-[3-fluoro-4-(4-cyanophenoxyacetyl)piperazin-1-ylphenyl]-5-(isoxazol-3-ylaminomethyl)isoxazole] the MIC [1] was 2 µg/mL (≈ 3.98 µM) and the MIC [2] was 2 µg/mL (≈ 3.98 µM).
`O=C(Cn1cncn1)N1CCN(c2ccc(-c3cc(CNc4ccon4)on3)cc2F)CC1` [Example 8, 3-[3-fluoro-4-(4-(1,2,4-triazol-1-yl)acetyl)piperazin-1-ylphenyl]-5-(isoxazol-3-ylaminomethyl)isoxazole] showed an MIC [1] of 4 µg/mL (≈ 8.84 µM) and an MIC [2] of 2 µg/mL (≈ 4.42 µM).
`O=C(c1cccnc1)N1CCN(c2ccc(-c3cc(CNc4ccon4)on3)cc2F)CC1` [Example 9, 3-[3-fluoro-4-(3-pyridylcarbonyl)piperazin-1-ylphenyl]-5-(isoxazol-3-ylaminomethyl)isoxazole] gave an MIC [1] of 4 µg/mL (≈ 8.92 µM), an MIC [2] of 2 µg/mL (≈ 4.46 µM) and an MIC [3] greater than 16 µg/mL.
Molecule `COc1ccccc1NCc1cn(-c2ccc(-c3cc(CNc4ccon4)on3)cc2F)cn1` [Example 29, [3-(3-fluoro-4-{4-[(2-methoxiphenylamino)-methyl]imidazol-1-yl}phenyl)isoxazol-5-ylmethyl]isoxazol-3-ylamine] has an MIC [1] of 1 µg/mL (≈ 2.17 µM), an MIC [2] of 0.5 µg/mL (≈ 1.09 µM) and an MIC [3] of 4 µg/mL (≈ 8.69 µM).
Molecule `N#Cc1ccn(-c2ccc(-c3cc(CNc4ccon4)on3)cc2F)c1` [Example 25] has an MIC [1] of 0.5 µg/mL (≈ 1.43 µM), an MIC [2] of 0.5 µg/mL (≈ 1.43 µM) and an MIC [3] of 16 µg/mL (≈ 45.8 µM).
`CC(=O)NC[C@H]1CN(c2ccc(N3CCN(C(=O)CO)CC3)c(F)c2)C(=O)O1` [Eperezolid, eperezolid, reference compound] gave an MIC [1] of 4 µg/mL (≈ 10.1 µM), an MIC [2] of 2 µg/mL (≈ 5.07 µM) and an MIC [3] of 8 µg/mL (≈ 20.3 µM).

From patent US20050014806A1, “Substituted isoxazoles and their use as antibiotics” (priority 2001, published 2005)
